IC50 data for 36 compounds are collected here from patent publication US8653089B2, “Heterocyclic compounds and methods of use” (F. Hoffmann-La Roche AG, priority 2011, dated 2014).

The assay concerns production of CD69 by B lymphocytes in human whole blood activated by crosslinking surface IgM. Put plainly: CD69 human whole blood assay (Example 903), FACS. It counts as cell-based. As to conditions: B lymphocytes activated with goat F(ab')2 anti-human IgM, read-out: CD69 Hu Blood FACS IC50. From the text:
There is good evidence that B-cells play a key role in the pathogenesis of autoimmune and/or inflammatory disease. Protein-based therapeutics that deplete B cells such as Rituxan are effective against autoantibody-driven inflammatory diseases such as rheumatoid arthritis (Rastetter et al. (2004) Annu Rev Med 55:477). CD69 is the early activation marker in leukocytes including T cells, thymocytes, B cells, NK cells, neutrophils, and eosinophils. The CD69 human whole blood assay (Example 903) determines the ability of compounds to inhibit the production of CD69 by B lymphocytes in human whole blood activated by crosslinking surface IgM with goat F(ab′)2 anti-human IgM.

Where two headings read alike, the source gives them in different places.

For `COCC(Nc1ncnc2nc[nH]c12)c1nc2ccc(F)cc2n1-c1ccccc1` (stereo not drawn) [Example 171, [1-(6-Fluoro-1-phenyl-1H-benzoimidazol-2-yl)-2-methoxy-ethyl]-(7H-purin-6-yl)-amine], the IC50 (Homo sapiens, Lymphocyte) stood at 106 nM.
Consider `OCC(Nc1ncnc2nc[nH]c12)c1nc2ccc(F)cc2n1-c1ccccc1` (stereo not drawn) [Example 172, 2-(6-Fluoro-1-phenyl-1H-benzoimidazol-2-yl)-2-(7H-purin-6-ylamino)-ethanol], for which the IC50 came out at 175 nM.
`C[C@H](Nc1ncnc2[nH]cnc12)c1nc2ccc(Cl)cc2n1-c1ccccc1` [Example 173, [(S)-1-(6-Chloro-1-phenyl-1H-benzoimidazol-2-yl)-ethyl]-(9H-Aurin-6-yl)-amine]: for the setting “Homo sapiens, Lymphocyte”, the IC50 stood at 301 nM.
For the compound `CC(Nc1ncnc2[nH]cnc12)c1nc2ccc(F)cc2n1-c1cccnc1` (stereo not drawn) [Example 176, [1-(6-Fluoro-1-pyridin-3-yl-1H-benzoimidazol-2-yl)-ethyl]-(9H-purin-6-yl)-amine], the IC50 amounted to 62.9 nM.
For the compound `C[C@H](Nc1ncnc2[nH]cnc12)c1nc2ccc(F)c(Br)c2n1-c1ccccc1` [Example 178, [(S)-1-(7-Bromo-6-fluoro-1-phenyl-1H-benzoimidazol-2-yl)-ethyl]-(9H-purin-6-yl)-amine], the IC50 (Homo sapiens, Lymphocyte) came out at 80.6 nM.
Regarding `CC(Nc1ncnc2[nH]cnc12)c1nc2ccc(F)c(Cl)c2n1-c1ccccc1` (stereo not drawn) [Example 179, [1-(7-Chloro-6-fluoro-1-phenyl-1H-benzoimidazol-2-yl)-ethyl]-(9H-purin-6-yl)-amine], for the setting “Homo sapiens, Lymphocyte”, the IC50 came out at 146 nM.
For the compound `CC(Nc1ncnc2[nH]cnc12)c1nc2ccc(F)cc2n1-c1ccccn1` (stereo not drawn) [Example 182, [1-(6-Fluoro-1-pyridin-2-yl-1H-benzoimidazol-2-yl)-ethyl]-(9H-purin-6-yl)-amine], the IC50 came to 67.1 nM.
Turning to `Cc1c(F)ccc2nc([C@H](C)Nc3ncnc4[nH]cnc34)n(-c3ccccc3)c12` [Example 183, [(S)-1-(6-Fluoro-7-methyl-1-phenyl-1H-benzoimidazol-2-yl)-ethyl]-(9H-purin-6-yl)-amine], the concentration for half-maximal inhibition (IC50) (Homo sapiens, Lymphocyte) worked out at 26.2 nM.
In the case of `C[C@H](Nc1ncnc2[nH]cnc12)c1nc2ccc(F)cc2n1-c1cccc(F)c1` [Example 185, {(S)-1-[6-Fluoro-1-(3-fluoro-phenyl)-1H-benzoimidazol-2-yl]-ethyl}-(9H-purin-6-yl)-amine], the IC50 (Homo sapiens, Lymphocyte) was found to be 52.1 nM.
In the case of `CC(Nc1ncnc2[nH]cnc12)c1nc2ccc(F)cc2n1-c1ccc(F)cc1` (stereo not drawn) [Example 186, {1-[6-Fluoro-1-(4-fluoro-phenyl)-1H-benzoimidazol-2-yl]-ethyl}-(9H-purin-6-yl)-amine], the IC50 is 134 nM.
In the case of `OCC[C@H](Nc1ncnc2[nH]cnc12)c1nc2ccc(F)cc2n1-c1ccccc1` [Example 187, (S)-3-(6-Fluoro-1-phenyl-1H-benzoimidazol-2-yl)-3-(9H-purin-6-ylamino)-propan-1-ol], under “Homo sapiens, Lymphocyte”, the IC50 was 119 nM.
Take `COC[C@H](Nc1ncnc2[nH]cnc12)c1nc2ccc(F)c(C)c2n1-c1ccccc1` [Example 188, [(R)-1-(6-Fluoro-7-methyl-1-phenyl-1H-benzoimidazol-2-yl)-2-methoxy-ethyl]-(9H-purin-6-yl)-amine]: the IC50 (Homo sapiens, Lymphocyte) turned out to be 149 nM.
As for `CC(Nc1ncnc2[nH]cnc12)c1nc2ccc(F)c(C#N)c2n1-c1ccccc1` (stereo not drawn) [Example 189, 5-Fluoro-3-phenyl-2-[1-(9H-purin-6-ylamino)-ethyl]-3H-benzoimidazole-4-carbonitrile], the IC50 came out at 39.5 nM.
In the case of `COCC(Nc1ncnc2[nH]cnc12)c1nc2ccc(F)c(F)c2n1-c1ccccc1` (stereo not drawn) [Example 190, [1-(6,7-Difluoro-1-phenyl-1H-benzoimidazol-2-yl)-2-methoxy-ethyl]-(9H-purin-6-yl)-amine], the IC50 (Homo sapiens, Lymphocyte) stood at 247 nM.
As for `CC(Nc1ncnc2[nH]cnc12)c1nc2ccc(F)cc2n1-c1ccccc1` (stereo not drawn) [Example 194, [1-(6-Fluoro-1-phenyl-1H-benzoimidazol-2-yl)-ethyl]-(9H-purin-6-yl)-amine], the IC50 (Homo sapiens, Lymphocyte) amounted to 50.8 nM.
Turning to `CC(Nc1ncnc2[nH]cnc12)c1nc2ccc(F)cc2n1-c1ccccc1F` (stereo not drawn) [Example 195, {1-[6-Fluoro-1-(2-fluoro-phenyl)-1H-benzoimidazol-2-yl]-ethyl}-(9H-purin-6-yl)-amine], the IC50 (Homo sapiens, Lymphocyte) came to 53 nM.
On to `COC(=O)c1c(F)ccc2nc(C(C)Nc3ncnc4[nH]cnc34)n(-c3ccccc3)c12` (stereo not drawn) [Example 197, 5-Fluoro-3-phenyl-2-[1-(9H-purin-6-ylamino)-ethyl]-3H-benzoimidazole-4-carboxylic acid methyl ester], for which the IC50 (Homo sapiens, Lymphocyte) was found to be 31.6 nM.
In the case of `CC(Nc1ncnc2[nH]cnc12)c1nc2ccc(F)c(C3CC3)c2n1-c1ccccc1` (stereo not drawn) [Example 198, [1-(7-Cyclopropyl-6-fluoro-1-phenyl-1H-benzoimidazol-2-yl)-ethyl]-(9H-purin-6-yl)-amine], the IC50 (Homo sapiens, Lymphocyte) worked out at 10.9 nM.
In the case of `C[C@H](Nc1ncnc2[nH]cnc12)c1nc2ccc(F)cc2n1C1CCCCC1` [Example 201, [(S)-1-(1-Cyclohexyl-6-fluoro-1H-benzoimidazol-2-yl)-ethyl]-(9H-purin-6-yl)-amine], where the note is “Homo sapiens, Lymphocyte”, the IC50 came to 118 nM.
The same measure, in the same setting: the same measure for `CC(Nc1ncnc2[nH]cnc12)c1nc2ccc(F)c(C(=O)N3CCN(C)CC3)c2n1-c1ccccc1` (stereo not drawn) [Example 202, {5-Fluoro-3-phenyl-2-[1-(9H-purin-6-ylamino)-ethyl]-3H-benzoimidazol-4-yl}-(4-methyl-piperazin-1-yl)-methanone]: 14.1 nM; for `CC(Nc1ncnc2[nH]cnc12)c1nc2ccc(F)c(C(=O)N3CCOCC3)c2n1-c1ccccc1` (stereo not drawn) [Example 203, {5-Fluoro-3-phenyl-2-[1-(9H-purin-6-ylamino)-ethyl]-3H-benzoimidazol-4-yl}-morpholin-4-yl-methanone]: 2.83 nM.
In the case of `CC(Nc1ncnc2[nH]cnc12)c1nc2ccc(F)c(C(=O)N(C)C)c2n1-c1ccccc1` (stereo not drawn) [Example 204, 5-Fluoro-3-phenyl-2-[1-(9H-purin-6-ylamino)-ethyl]-3H-benzoimidazole-4-carboxylic acid dimethylamide], under “Homo sapiens, Lymphocyte”, the IC50 is 67.5 nM.
For `CCC(Nc1ncnc2[nH]cnc12)c1nc2ccc(F)cc2n1-c1cccnc1` (stereo not drawn) [Example 205, [1-(6-Fluoro-1-pyridin-3-yl-1H-benzoimidazol-2-yl)-propyl]-(9H-purin-6-yl)-amine], the IC50 (Homo sapiens, Lymphocyte) stood at 42.9 nM.
Same read-out and setting: next, `CC(C)C(Nc1ncnc2[nH]cnc12)c1nc2ccc(F)cc2n1-c1cccnc1` (stereo not drawn) [Example 206, [1-(6-Fluoro-1-pyridin-3-yl-1H-benzoimidazol-2-yl)-2-methyl-propyl]-(9H-purin-6-yl)-amine]: 54.7 nM; `COc1ccc(-n2c(C(C)Nc3ncnc4[nH]cnc34)nc3ccc(F)cc32)cn1` (stereo not drawn) [Example 207, {1-[6-Fluoro-1-(6-methoxy-pyridin-3-yl)-1H-benzoimidazol-2-yl]-ethyl}-(9H-purin-6-yl)-amine]: 798 nM; `CC(Nc1ncnc2[nH]cnc12)c1nc2ccc(F)cc2n1-c1ccc(F)cn1` (stereo not drawn) [Example 208, {1-[6-Fluoro-1-(5-fluoro-pyridin-2-yl)-1H-benzoimidazol-2-yl]-ethyl}-(9H-purin-6-yl)-amine]: 206 nM.
As for `CC(Nc1ncnc2[nH]cnc12)c1nc2ccc(F)cc2n1-c1ccccn1` (stereo not drawn) [Example 210, [1-(6-Fluoro-1-pyridin-2-yl-1H-benzoimidazol-2-yl)-ethyl]-(9H-purin-6-yl)-amine], the IC50 came to 20.2 nM.
For the compound `CCC(Nc1ncnc2nc[nH]c12)c1nc2ccc(F)cc2n1-c1ccccc1` (stereo not drawn) [Example 212, [1-(6-Fluoro-1-phenyl-1H-benzoimidazol-2-yl)-propyl]-(7H-purin-6-yl)-amine], for the setting “Homo sapiens, Lymphocyte”, the IC50 is 55.5 nM.
As for `CC(Nc1ncnc2[nH]cnc12)c1nc2ccc(F)c(C#N)c2n1-c1ccccc1` (stereo not drawn) [Example 217, 5-Fluoro-3-phenyl-2-[1-(9H-purin-6-ylamino)-ethyl]-3H-benzoimidazole-4-carbonitrile], the IC50 (Homo sapiens, Lymphocyte) amounted to 43.3 nM.
For the compound `CC(Nc1ncnc2[nH]cnc12)c1nc2ccc(F)cc2n1-c1cccnc1` (stereo not drawn) [Example 220, [1-(6-Fluoro-1-pyridin-3-yl-1H-benzoimidazol-2-yl)-ethyl]-(9H-purin-6-yl)-amine], the IC50 worked out at 12.7 nM.
As to `CC(Nc1ncnc2[nH]cnc12)c1nc2ccc(F)cc2n1-c1ccc(F)cc1` (stereo not drawn) [Example 221, {1-[6-Fluoro-1-(4-fluoro-phenyl)-1H-benzoimidazol-2-yl]-ethyl}-(9H-purin-6-yl)-amine], under “Homo sapiens, Lymphocyte”, the IC50 turned out to be 152 nM.
For `OCC(Nc1ncnc2nc[nH]c12)c1nc2ccc(F)cc2n1-c1ccccc1` (stereo not drawn) [Example 224, 2-(6-Fluoro-1-phenyl-1H-benzoimidazol-2-yl)-2-(7H-purin-6-ylamino)-ethanol], where the note is “Homo sapiens, Lymphocyte”, the IC50 was determined as 129 nM.
Consider `CC(Nc1ncnc2[nH]cnc12)c1nc2ccc(F)cc2n1-c1ccc(C#N)cc1` (stereo not drawn) [Example 227, 4-{6-Fluoro-2-[1-(9H-purin-6-ylamino)-ethyl]-benzoimidazol-1-yl}-benzonitrile], for which the IC50 (Homo sapiens, Lymphocyte) turned out to be 78.3 nM.
Turning to `CC[C@H](Nc1ncnc2[nH]cnc12)c1nc2ccc(F)c(C#N)c2n1-c1ccccc1` [Example 244, 5-Fluoro-3-phenyl-2-[(S)-1-(9H-purin-6-ylamino)-propyl]-3H-benzoimidazole-4-carbonitrile], the IC50 (Homo sapiens, Lymphocyte) stood at 79.3 nM.
On the same count and under the same terms, next, `C[C@H](Nc1ncnc(N)c1C#N)c1nc2ccc(F)cc2n1-c1ccccc1` [Example 246, 4-Amino-6-[(S)-1-(6-fluoro-1-phenyl-1H-benzoimidazol-2-yl)-ethylamino]-pyrimidine-5-carbonitrile]: 16.7 nM; `CC[C@H](Nc1ncnc2[nH]cnc12)c1nc2ccc(F)cc2n1-c1ccccn1` [Example 247, [(S)-1-(6-Fluoro-1-pyridin-2-yl-1H-benzoimidazol-2-yl)-propyl]-(9H-purin-6-yl)-amine]: 405 nM.
